Legend:
Type in all cases: cell-based
[1] = system: human chronic myelocytic leukemia K562 cells; assay: Growth inhibition test on human chronic myelocytic leukemia K562 cells (WST-1, % viability); conditions: test compound 10 μmol/L, 72 hours, cells without test compound = 100%
Experimental: One thousand cells of human chronic myelocytic leukemia K562 were inoculated into each well of a 96-well microplate (manufactured by Nunc Corp.), and using RPMI1640 medium (culture medium) containing 10% fetal calf serum (FCS), preculturing was performed in a 5% carbon dioxide incubator at 37° C. for 24 hours. A dimethyl sulfoxide (DMSO) solution of each test compound prepared in a concentration of 10 mmol/L was diluted with the culture medium to a final concentration of 10 μmol/L, and the diluted solution was added to each well. The individual wells were further cultured in the 5% carbon dioxide incubator at 37° C. for 72 hours. After completion of the culturing, 10 μL of WST-1 {4-[3-(4-Iodophenyl)-2-(4-nitrophenyl)-2H-5-tetrazolio]-1,3-benzene disulfonate} labeled mixture (manufactured by Roche Diagnostic Corp.) was added to each well, and culturing was performed in the 5% carbon dioxide incubator at 37° C. for 2 hours. Using a microplate spectrophotometer (SpectraMax 340PC384; manufactured by Nihon Molecular Devices), the absorbance of each well was measured at 450 nm and 655 nm. The value obtained by subtracting the absorbance at 450 nm from the absorbance at 655 nm (absorbance difference) was calculated for each well. The value for cells not incorporated with a test compound was designated as 100%, and the value at a well not containing cells was designated as 0%. By comparing these values with the absorbance difference obtained at the well in which each test compound was added, the cell viability (% viability) after treatment with the test compound was calculated.

[2] = system: human T-cell lymphoma Karpas-299 cells; assay: Growth inhibition test on human T-cell lymphoma Karpas-299 cells (WST-1, % viability); conditions: test compound 10 μmol/L, 72 hours, cells without test compound = 100%
Experimental: (§1) Five thousand cells of human T-cell lymphoma Karpas-299 were inoculated into each well of a 96-well microplate (manufactured by Nunc Corp.), and using RPMI medium (culture medium) containing 10% FCS, preculturing was performed in a 5% carbon dioxide incubator at 37° C. for 5 hours. A DMSO solution of each test compound prepared in a concentration of 10 mmol/L was diluted with the culture medium to a final concentration of 10 μmol/L, and the diluted solution was added to each well. The individual wells were further cultured in the 5% carbon dioxide incubator at 37° C. for 72 hours. After completion of the culturing, 10 μL of WST-1 labeled mixture (manufactured by Roche Diagnostic Corp.) was added to each well, and culturing was performed in the 5% carbon dioxide incubator at 37° C. for 2 hours. Using a microplate spectrophotometer (SpectraMax 340PC384; manufactured by Nihon Molecular Devices), the absorbance of each well was measured at 450 nm and 655 nm. The value obtained by subtracting the absorbance at 450 nm from the absorbance at 655 nm (absorbance difference) was calculated for each well. The value for cells not incorporated with a test compound was designated as 100%, and the value at a well not containing cells was designated as 0%. By comparing these values with the absorbance difference obtained at the well in which each test compound was added, the cell viability (% viability) after treatment with the test compound was calculated.

[3] = system: human lung cancer NCI-H596 cells; assay: Growth inhibition test on human lung cancer NCI-H596 cells (WST-1, % viability); conditions: test compound 10 μmol/L, cells without test compound = 100%
Experimental: as §1, with “Four thousand” for “Five thousand”, “human lung cancer NCI-H596” for “human T-cell lymphoma Karpas-299”, “using RPMI1640” for “using RPMI”, “for 24” for “for 5”, “spectrophotometer (Model 550;” for “spectrophotometer (SpectraMax 340PC384;”, “by Bio-Rad),” for “by Nihon Molecular Devices),”

[4] = system: human mammary cancer BT-474 cells; assay: Growth inhibition test on human mammary cancer BT-474 cells (WST-1, % viability); conditions: test compound 10 μmol/L, cells without test compound = 100%
Experimental: as §1, with “Four thousand” for “Five thousand”, “human mammary cancer BT-474” for “human T-cell lymphoma Karpas-299”, “using Dulbecco's Modified Eagle's Medium (DMEM)” for “using RPMI medium”, “for 24” for “for 5”

Row | Structure (SMILES) | Viability of tumor cells (% viability), Human chronic myelocytic leukemia K562 cells [1] [%] | Viability of tumor cells (% viability), Human T-cell lymphoma Karpas-299 cells [2] [%] | Viability of tumor cells (% viability), Human lung cancer NCI-H596 cells [3] [%] | Viability of tumor cells (% viability), Human mammary cancer BT-474 cells [4] [%]
1 | CCc1c(O)cc(O)c(C(=O)c2ccc(OC(C)C)cc2)c1CC(=O)N(CCO)CCOC [Compound 124] | 4 | 14 | 15 | 13
2 | CCc1c(O)cc(O)c(C(=O)c2ccc(OCCN3CCOCC3)c(OC)c2)c1CC(=O)N(CCOC)CCOC [Compound 125] | 4 | 15 | 17 | 14
3 | CCc1c(O)cc(O)c(C(=O)c2ccc(OC(C)C)cc2)c1CC(=O)N(CCOC)CCN1CCOCC1 [Compound 134] | 4 | 16 | 17 | 13
4 | CCc1c(O)cc(O)c(C(=O)c2ccc(OCCN3CCOCC3)c(OC)c2)c1CC(=O)N(CCOC)CCOC.Cl [Compound 139] | 4 | 14 | 16 | 14
5 | CCc1c(O)cc(O)c(C(=O)c2ccc(C(F)(F)F)cc2)c1CC(=O)N(CCO)CCOC [Compound 144] | 4 | 15 | 14 | 13
6 | CCc1c(O)cc(O)c(C(=O)c2ccc(OCCCN3CCOCC3)c(OC)c2)c1CC(=O)N(CCOC)CCOC [Compound 149] | 4 | 14 | 14 | 14
7 | CCc1c(O)cc(O)c(C(=O)c2ccsc2)c1CC(=O)N(CCO)CCOC [Compound 151] | 4 | 13 | 28 | 13

From US20090042883A1, “ANTITUMOR AGENT” (KYOWA HAKKOKOGYO CO., priority 2005, published 2009)
